# Measurements published in patent US20230115120A1, “COMPOSITIONS, METHODS AND USES OF COMBINATION TREATMENTS FOR BLOOD CANCERS” (University of New Brunswick, priority 2020, published 2023).
# Legend:
# [1] = test system: IKZF1, IKZF3, IRF4, MYC and HDAC1 gene expression in human myeloma cells (KMM-1); assay: RNA Seq gene expression profiling in KMM-1 myeloma cells; type: cell-based; details: in comparison with untreated and lenalidomide (10 uM) treated conditions, FIG. 1
# Procedure: RNA from myeloma cells (treated and untreated) was isolated and checked for integrity using the Agilent Bioanalyzer 2100 system (Agilent Technologies, Santa Clara, Calif., USA) and quantified using a Qubit fluorometric assay (Thermo Fisher Scientific, USA). RNA Seq was carried out at the Genome Quebec, Montreal, Canada. […] The remaining steps of library preparation were done using the NEBNext Ultra II DNA Library Prep Kit for Illumina (New England BioLabs). Adapters and PCR primers were purchased from New England BioLabs. Libraries were quantified using the Quant-iT™ PicoGreen® dsDNA Assay Kit (Life Technologies) and the Kapa Illumina GA with Revised Primers-SYBR Fast Universal kit (Kapa Biosystems). Average size fragment was determined using a LabChip GX (PerkinElmer) instrument. All bioinformatics analyses were done by the Canadian Centre for Computational Genomics (C3G)-Montréal Node, Canada.
# myeloma cell line JJN3 = assay: Cell growth inhibition (PrestoBlue) in myeloma cell line JJN3; type: cell-based, Human; details: FIG. 3a
# Procedure: Cell Culture. Human myeloma cell lines JJN3 were purchased from ATCC, KMM-1 was procured from the Japanese Collection of Research Bioresources Cell Bank (JCBR, Japan). The MM1.R cell line was a kind gift from Dr. Jonathan Keats, Translational Genomics Research Institute (TGen, USA). JJN3 cells were grown in RPMI-1640 medium (Sigma Aldrich, USA) supplemented with 5% heat inactivated FBS (Gibco), 1% I-glutamine (Gibco), 5 mM HEPES, and 1% Penstrep (Sigma Aldrich, USA); KMM-1 cells in RPMI-1640 media supplemented with 10% FBS, 1% L-glutamine (Gibco) and 1% Penstrep; MM1.R cells in advanced RPMI-1640 medium with 4% FBS and 1% Glutamax, in a humidified 5% CO2 incubator at 37° C. Cell lines were tested regularly for mycoplasma and kept free of contamination. Lenalidomide, terameprocol (Sigma Aldrich, USA) and pomalidomide from Selleck chemicals were used.
# Cell Growth Inhibition Studies. A 48-h cell growth inhibition assay was conducted using the PrestoBlue cell viability kit (Invitrogen, ON, Canada). Cells were plated at 10,000 cells/well in 96-well tissue culture plates. The effect of single inhibitor and inhibitor combination treatments were done using appropriate vehicle and medium (blank) controls. Cells were incubated at 37° C. in a 5% CO2 incubator for 48 h or 72 h depending on the chosen duration of the study. At the end of the treatment, cell growth inhibition was determined by the PrestoBlue assay. […] Cell growth was assessed fluorometrically at 37° C. using the BioTek Synergy H4 Hybrid Multi-Mode microplate reader (535 nm excitation; 615 nm emission) with Gen 2.06 analyses software. Fluorescence values were corrected for any background fluorescence of the medium and test fractions by subtracting fluorescence readings of the appropriate blanks from the mean fluorescence readings of the untreated control and test wells. The percentage inhibition of cell growth was then defined as 1−(mean test well fluorescence/mean control well fluorescence)×100.
# myeloma cell = assay: Myeloma cell growth inhibition, combination treatments (FIG. 4, FIG. 5); type: cell-based, Human
# Procedure: Cell Growth Inhibition Studies. A 48-h cell growth inhibition assay was conducted using the PrestoBlue cell viability kit (Invitrogen, ON, Canada). Cells were plated at 10,000 cells/well in 96-well tissue culture plates. The effect of single inhibitor and inhibitor combination treatments were done using appropriate vehicle and medium (blank) controls. Cells were incubated at 37° C. in a 5% CO2 incubator for 48 h or 72 h depending on the chosen duration of the study. At the end of the treatment, cell growth inhibition was determined by the PrestoBlue assay. In brief, 10% PrestoBlue reagent was added to untreated and treated cells in […] in each well and incubated at 37° C. for one and a half hours. Cell growth was assessed fluorometrically at 37° C. using the BioTek Synergy H4 Hybrid Multi-Mode microplate reader (535 nm excitation; 615 nm emission) with Gen 2.06 analyses software. Fluorescence values were corrected for any background fluorescence of the medium and test fractions by subtracting fluorescence readings of the appropriate blanks from the mean fluorescence readings of the untreated control and test wells. The percentage inhibition of cell growth was then defined as 1−(mean test well fluorescence/mean control well fluorescence)×100.
# [2] = test system: HDAC1, Sp1, IRF4, IKZF1 and c-MYC protein in human myeloma cell lines JJN3 and MMIR; assay: Western blots of key protein targets in myeloma cell lines; type: cell-based; details: 1, 5, 10 and 25 uM, in comparison with panobinostat, FIG. 2a, 2b
# Procedure: Western/Immunoblotting Methods. Protein lysates were obtained from untreated and CAPE (2) analog-treated myeloma cells and the concentration of proteins was determined by the BCA method. Proteins were resolved in a 4-20% criterion gel followed by electrophoretic transfer to nitrocellulose membrane (Bio-Rad Laboratories Inc., Germany). Membranes were then blocked with 5% skimmed milk in tris-buffered saline-tween (TBS-T) for 1 h and then, after rapid TBS-T washes, incubated overnight at 4° C. with a primary antibody of interest. Goat polyclonal anti-IRF4, rabbit polyclonal anti-Ikaros (Santa Cruz Biotechnology, Santa Cruz, Calif.); mouse monoclonal anti-Caspase-8, rabbit anti-Caspase-3, cleaved Caspase-3, anti-Sp1 (Cell Signaling Technology, Whitby, ON), rabbit monoclonal anti-MYC and mouse monoclonal β-actin antibody (Abcam, Cambridge, Mass.) were the primary antibodies used for this study. Following this, the membrane was incubated with HRP conjugated secondary antibodies. Protein levels in immunoblots were detected with an Amersham™ ECL™ Prime western blotting detection kit (GE Healthcare, ON, Canada), the imaging was performed using the ChemiDoc™ MP imaging system (Bio-Rad Laboratories, USA) and densitometry analyses were done using the Image Lab 5.0 software.
smiles,measurement,setting,value
O=C(/C=C/c1ccc(O)c(O)c1)OCCCc1ccccc1 [GL8],"gene expression of IKZF1, IKZF3, IRF4, MYC and HDAC1",[1]; 25 uM,downregulated
same,"gene expression of IKZF1, IKZF3, IRF4, MYC and HDAC1",[1]; 50 uM,downregulated
"Cc1[nH]c2ccccc2c1CCNCc1ccc(/C=C/C(=O)NO)cc1 [panobinostat, reference compound]",inhibition at 1 pM,"myeloma cell line JJN3; Homo sapiens, JJN-3, panobinostat alone, 0.001 nM",17 ± 3%
O=C(/C=C/c1cc(O)ccc1O)OCCCc1ccccc1 [As26],myeloma cell growth inhibition,myeloma cell line JJN3; combination 2.5 μM As26 with 0.001 nM panobinostat,54.4%
same,myeloma cell growth inhibition,myeloma cell line JJN3; combination 5 μM As26 with 0.001 nM panobinostat,69.8%
same,"myeloma cell growth inhibition, combination versus single agents","myeloma cell; Sp1 inhibitor Terameprocol (TMP) and As26 combination, FIG. 5",augmented myeloma cell growth inhibition
same,"myeloma cell growth inhibition, combination versus single agents","myeloma cell; Trichostatin A and IC 50 As26 combination treatment, FIG. 4",augmented myeloma cell growth inhibition
"O=C(/C=C/c1ccc(O)c(O)c1)OCCc1ccccc1 [CAPE, caffeic acid phenethyl ester]","gene expression of IKZF1, IKZF3, IRF4, MYC and HDAC1",[1]; 50 uM,downregulated
same,"protein levels of HDAC1, Sp1, IRF4, IKZF1 and c-MYC",[2],lowered
